# Assay results published in ChEMBL document CHEMBL1909046, “DrugMatrix in vitro pharmacology data”.
# Assays:
# [1] = DRUGMATRIX: GABAA, Chloride Channel, TBOB radioligand binding (ligand: [3H] TBOB); assay type: cell membranes, Rattus norvegicus, Wistar, Cerebral cortex, Membrane; details: Not Active = under 50% inhibition at 10 µM
# Glycine receptor = Glycine receptor (Rattus norvegicus, UniProt P22771+P24524+P07727+P20781); assay type: cell membranes, Wistar, Spinal cord, Membrane; also: in other assays of this panel Not Active means under 50% inhibition at 10 µM
# [2] = DRUGMATRIX: Nicotinic Acetylcholine radioligand binding (ligand: [125I] Epibatidine); assay type: cell membranes, Membrane; details: imr-32; Not Active = under 50% inhibition at 10 µM
# [3] = molecular target: Mitogen-activated protein kinase 14 (Homo sapiens, UniProt Q16539); parameters: species or system Escherichia coli;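 also: inhibition of p38alpha enzyme activity in a biochemical kinase assay, with myelin basic protein serving as substrate; in other assays of this panel Not Active means under 50% inhibition at 10 µM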
# Mitogen-activated protein kinase 14, sequence (Q16539 whole entry): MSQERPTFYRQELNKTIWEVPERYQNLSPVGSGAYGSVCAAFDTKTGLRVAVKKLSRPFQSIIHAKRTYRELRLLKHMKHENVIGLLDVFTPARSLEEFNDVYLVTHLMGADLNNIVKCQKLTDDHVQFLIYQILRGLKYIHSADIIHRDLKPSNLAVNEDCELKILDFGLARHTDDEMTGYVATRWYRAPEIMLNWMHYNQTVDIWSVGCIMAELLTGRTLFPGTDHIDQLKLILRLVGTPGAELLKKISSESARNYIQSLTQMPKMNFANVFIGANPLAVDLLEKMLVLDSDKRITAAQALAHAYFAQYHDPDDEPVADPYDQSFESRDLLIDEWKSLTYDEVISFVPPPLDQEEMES
# [4] = molecular target: Protein phosphatase 3 catalytic subunit alpha (Homo sapiens, UniProt Q08209); parameters: species or system Escherichia coli;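 also: inhibition of calcineurin (PP2B) enzyme activity, measured with DiFMUP as the substrate; in other assays of this panel Not Active means under 50% inhibition at 10 µM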
# [5] = molecular target: Tyrosine-protein kinase Fyn (Homo sapiens, UniProt P06241); experiment: biochemical; assay type: cell-based, Insect cells;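 also: enzymatic inhibition of Fyn kinase activity measured with Poly(Glu:Tyr) as the phosphorylation substrate; in other assays of this panel Not Active means under 50% inhibition at 10 µM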
# Tyrosine-protein kinase Fyn, sequence (P06241 whole entry): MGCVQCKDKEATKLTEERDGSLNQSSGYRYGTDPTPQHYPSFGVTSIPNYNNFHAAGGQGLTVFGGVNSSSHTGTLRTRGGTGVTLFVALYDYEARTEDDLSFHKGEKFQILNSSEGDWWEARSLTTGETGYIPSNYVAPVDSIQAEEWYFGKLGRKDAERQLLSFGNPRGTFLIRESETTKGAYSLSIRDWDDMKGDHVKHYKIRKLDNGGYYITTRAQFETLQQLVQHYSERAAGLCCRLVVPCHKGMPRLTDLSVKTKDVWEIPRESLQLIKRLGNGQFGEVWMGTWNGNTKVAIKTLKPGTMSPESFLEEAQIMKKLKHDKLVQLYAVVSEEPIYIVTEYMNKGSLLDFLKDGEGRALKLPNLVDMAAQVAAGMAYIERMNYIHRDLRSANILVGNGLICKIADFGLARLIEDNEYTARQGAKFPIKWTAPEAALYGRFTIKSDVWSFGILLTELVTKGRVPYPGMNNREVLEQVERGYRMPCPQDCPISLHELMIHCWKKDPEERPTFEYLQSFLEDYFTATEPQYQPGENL
# [6] = molecular target: 5-hydroxytryptamine receptor 1B (Rattus norvegicus, UniProt P28564); assay type: cell membranes, Wistar, Cerebral cortex, Membrane; details: for Ki: read-out: Ki
# 5-hydroxytryptamine receptor 1B, sequence (P28564 whole entry): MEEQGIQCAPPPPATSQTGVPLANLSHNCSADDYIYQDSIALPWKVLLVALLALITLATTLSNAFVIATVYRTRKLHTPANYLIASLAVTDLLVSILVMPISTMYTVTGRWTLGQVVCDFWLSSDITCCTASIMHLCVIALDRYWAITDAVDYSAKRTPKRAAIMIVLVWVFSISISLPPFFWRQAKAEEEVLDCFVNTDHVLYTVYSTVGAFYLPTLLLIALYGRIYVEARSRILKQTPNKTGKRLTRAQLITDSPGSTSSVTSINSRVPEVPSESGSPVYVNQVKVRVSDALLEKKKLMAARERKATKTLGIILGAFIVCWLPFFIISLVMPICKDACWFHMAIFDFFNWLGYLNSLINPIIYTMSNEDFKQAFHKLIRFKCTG
SMILES,IC50 [1],Ki [1],IC50 (Glycine receptor),IC50 [2],Ki [2],IC50 [3],IC50 [4],IC50 ([5]; insect cells),IC50 [6],IC50 ([3]; read-out: IC50) [nM],IC50 ([5]; read-out: IC50) [nM],IC50 ([6]; read-out: IC50) [nM],Ki [6] [nM]
CC(N)C12CC3CC(CC(C3)C1)C2 (stereo unspecified) [RIMANTADINE],Not Active,Not Active,Not Active,Not Active,Not Active,Not Active,Not Active,Not Active,Not Active,–,–,–,–
CS(=O)(=O)c1ccc(C2=C(c3ccccc3)C(=O)OC2)cc1 [ROFECOXIB],Not Active,Not Active,Not Active,Not Active,Not Active,Not Active,Not Active,Not Active,Not Active,–,–,–,–
CCOc1cc(N)c(Cl)cc1C(=O)NCC1CN(Cc2ccc(F)cc2)CCO1 (stereo unspecified) [MOSAPRIDE],Not Active,Not Active,Not Active,Not Active,Not Active,Not Active,Not Active,Not Active,Not Active,–,–,–,–
Cc1ccnc(NS(=O)(=O)c2ccc(N)cc2)n1 [SULFAMERAZINE],Not Active,Not Active,Not Active,Not Active,Not Active,Not Active,Not Active,Not Active,Not Active,–,–,–,–
OC[C@@H](O)[C@@H](O)[C@H](O)[C@H](O)CO [MANNITOL],Not Active,Not Active,Not Active,Not Active,Not Active,Not Active,Not Active,Not Active,Not Active,–,–,–,–
Oc1ccc(/C=C/c2cc(O)cc(O)c2)cc1 [RESVERATROL],Not Active,Not Active,Not Active,Not Active,Not Active,Not Active,Not Active,Not Active,Not Active,–,–,–,–
CC1=C(/C=C/C(C)=C/C=C/C(C)=C/C(=O)O)C(C)(C)CCC1 [TRETINOIN],Not Active,Not Active,Not Active,Not Active,Not Active,Not Active,Not Active,Not Active,Not Active,–,–,–,–
C=CCc1ccc2c(c1)OCO2 [SAFROLE],Not Active,Not Active,Not Active,Not Active,Not Active,Not Active,Not Active,Not Active,Not Active,–,–,–,–
CCN(CC)N=O [N-NITROSODIETHYLAMINE],Not Active,Not Active,Not Active,Not Active,Not Active,Not Active,Not Active,Not Active,Not Active,–,–,–,–
CCN1CCCC1CNC(=O)c1cc(S(N)(=O)=O)ccc1OC (stereo unspecified) [SULPIRIDE],Not Active,Not Active,Not Active,Not Active,Not Active,Not Active,Not Active,Not Active,Not Active,–,–,–,–
O=C1CC[C@@]2(O)[C@H]3Cc4ccc(O)c5c4[C@@]2(CCN3CC2CC2)[C@H]1O5 [NALTREXONE],Not Active,Not Active,Not Active,Not Active,Not Active,Not Active,Not Active,Not Active,Not Active,–,–,–,–
C[N+]1(C)[C@@H]2C[C@@H](OC(=O)[C@H](CO)c3ccccc3)C[C@H]1[C@@H]1O[C@@H]12.[Br-] [METHSCOPOLAMINE BROMIDE],Not Active,Not Active,Not Active,Not Active,Not Active,Not Active,Not Active,Not Active,Not Active,–,–,–,–
CCN(CC)CCNC(=O)c1cc(Cl)c(N)cc1OC [METOCLOPRAMIDE],Not Active,Not Active,Not Active,Not Active,Not Active,Not Active,Not Active,Not Active,Not Active,–,–,–,–
O=C(OC[C@H]1O[C@@H](OC(=O)c2cc(O)c(O)c(OC(=O)c3cc(O)c(O)c(O)c3)c2)[C@H](OC(=O)c2cc(O)c(O)c(OC(=O)c3cc(O)c(O)c(O)c3)c2)[C@@H](OC(=O)c2cc(O)c(O)c(OC(=O)c3cc(O)c(O)c(O)c3)c2)[C@@H]1OC(=O)c1cc(O)c(O)c(OC(=O)c2cc(O)c(O)c(O)c2)c1)c1cc(O)c(O)c(OC(=O)c2cc(O)c(O)c(O)c2)c1 [TANNIC ACID],Not Active,Not Active,Not Active,Not Active,Not Active,–,Not Active,–,Not Active,375,22,–,–
CN1C(=O)OC(C)(C)C1=O [TRIMETHADIONE],Not Active,Not Active,Not Active,Not Active,Not Active,Not Active,Not Active,Not Active,Not Active,–,–,–,–
Cc1cn([C@H]2C=C[C@@H](CO)O2)c(=O)[nH]c1=O [STAVUDINE],Not Active,Not Active,Not Active,Not Active,Not Active,Not Active,Not Active,Not Active,Not Active,–,–,–,–
CN1C[C@H](CNC(=O)OCc2ccccc2)C[C@@H]2c3cccc4c3c(cn4C)C[C@H]21 [METERGOLINE],Not Active,Not Active,Not Active,Not Active,Not Active,Not Active,Not Active,Not Active,–,–,–,19,11
CCN(CC)C(=S)SSC(=S)N(CC)CC,Not Active,Not Active,Not Active,Not Active,Not Active,Not Active,Not Active,Not Active,–,–,–,4720,2150
Cc1cc2c(s1)Nc1ccccc1N=C2N1CCN(C)CC1 [OLANZAPINE],–,–,Not Active,–,–,Not Active,Not Active,Not Active,–,–,–,707,433
CC(C)(C)NC[C@H](O)COc1cccc2c1CCCC2=O [LEVOBUNOLOL],Not Active,Not Active,Not Active,Not Active,Not Active,Not Active,Not Active,Not Active,Not Active,–,–,–,–
Nc1nc(N)c2nc(-c3ccccc3)c(N)nc2n1,Not Active,Not Active,Not Active,Not Active,Not Active,Not Active,Not Active,Not Active,Not Active,–,–,–,–
Cc1ccc(S(=O)(=O)NC(=O)NN2CCCCCC2)cc1 [TOLAZAMIDE],Not Active,Not Active,Not Active,Not Active,Not Active,Not Active,Not Active,Not Active,Not Active,–,–,–,–
Cc1ccc(Cl)c(Nc2ccccc2C(=O)O)c1Cl [MECLOFENAMIC ACID],Not Active,Not Active,Not Active,Not Active,Not Active,Not Active,Not Active,Not Active,Not Active,–,–,–,–
CO[C@@H]1[C@@H](OC)[C@H](C)[C@@](O)(CC(=O)O)O[C@H]1[C@H](C)[C@H]1O[C@@]2(CC[C@@](C)([C@H]3CC[C@@](C)([C@@H]4O[C@@H]([C@H]5O[C@](C)(O)[C@H](C)C[C@@H]5C)C[C@@H]4O[C@@H]4C[C@H](OC)[C@@H](OC)[C@H](C)O4)O3)O2)C[C@H](O)[C@H]1C.N [MADURAMICIN],Not Active,Not Active,Not Active,Not Active,Not Active,Not Active,Not Active,Not Active,Not Active,–,–,–,–
CCC(C)(C)C(=O)O[C@H]1C[C@@H](C)C=C2C=C[C@H](C)[C@H](CC[C@@H]3C[C@@H](O)CC(=O)O3)[C@H]21 [SIMVASTATIN],Not Active,Not Active,Not Active,Not Active,Not Active,Not Active,Not Active,Not Active,Not Active,–,–,–,–
CN(C)CCC=C1c2ccccc2COc2ccccc21 [DOXEPIN],–,–,Not Active,–,–,Not Active,Not Active,Not Active,Not Active,–,–,–,–
C#C[C@]1(O)CC[C@H]2[C@@H]3[C@H](C)CC4=C(CCC(=O)C4)[C@H]3CC[C@@]21C [TIBOLONE],Not Active,Not Active,Not Active,Not Active,Not Active,Not Active,Not Active,Not Active,Not Active,–,–,–,–
Cc1nnc(NS(=O)(=O)c2ccc(N)cc2)s1 [SULFAMETHIZOLE],Not Active,Not Active,Not Active,Not Active,Not Active,Not Active,Not Active,Not Active,Not Active,–,–,–,–
C[C@]12CCC(=O)C[C@@H]1CC[C@@H]1[C@@H]2CC[C@]2(C)[C@@H](O)CC[C@@H]12 [STANOLONE],Not Active,Not Active,Not Active,Not Active,Not Active,Not Active,Not Active,Not Active,Not Active,–,–,–,–
CNCCCC12CCC(c3ccccc31)c1ccccc12 [MAPROTILINE],–,–,Not Active,–,–,Not Active,Not Active,Not Active,Not Active,–,–,–,–
